Data as given in US6630495B1, “Fungicides” (priority 1999, dated 2003).

| melting point [°C] | SMILES |
| --- | --- |
| 122 to 126 | O=[N+]([O-])c1ccccc1CC(=NO)NCc1ncc(C(F)(F)F)cc1Cl |
| 166 | CC(C#N)(NC(=O)c1c(Cl)cccc1Cl)c1ncc(C(F)(F)F)cc1Cl (centres unmarked) [Compound 110, N-[1-(3-Chloro-5-trifluoromethyl-2-pyridyl)-1-cyanoethyl]-2,6-dichlorobenzamide] |
